Results from patent US20030109549A1 (published 2003).
Counter-ions that a name gives are not always drawn.

melting point [°C] | SMILES
188 to 192 | c1ccc(N2CCN(c3nc4ccccc4n3C3CCN(C4(c5ccccc5)CCCCCC4)CC3)CC2)cc1 (as salt: HCl)
114 to 118 | c1ccc(C2(N3CCC(n4c(OC5CCNCC5)nc5ccccc54)CC3)CCCCCC2)cc1 (as salt: HCl)
139 to 143 | c1ccc(CN2CCN(c3nc4ccccc4n3C3CCN(C4(c5ccccc5)CCCCCC4)CC3)CC2)cc1 (as salt: HCl)
201 to 204 | ON=C1CCN(c2nc3ccccc3n2C2CCN(C3(c4ccccc4)CCCCCC3)CC2)CC1 (as salt: fumaric acid salt)
177 to 180 | c1ccc(C2(N3CCC(n4c(N5CCCCC5)nc5ccccc54)CC3)CCCCCC2)cc1 (as salt: HCl)
188 to 192 | CN(C)CCNc1nc2ccccc2n1C1CCN(C2(c3ccccc3)CCCCCC2)CC1 (as salt: HCl)
153 to 156 | Clc1nc2ccccc2n1C1CCN(C2(c3ccccc3)CCCCCC2)CC1 (as salt: HCl)
173 to 177 | CNC(C)Nc1nc2ccccc2n1C1CCN(C2(c3ccccc3)CCCCCC2)CC1 (stereo not shown) (as salt: HCl)
172 to 176 | c1ccc(C2(N3CCC(n4c(N5CCOCC5)nc5ccccc54)CC3)CCCCCC2)cc1 (as salt: HCl)
168 to 172 | O=C1CCN(c2nc3ccccc3n2C2CCN(C3(c4ccccc4)CCCCCC3)CC2)CC1 (as salt: HCl)
215 to 218 | N=C(N)NCCNc1nc2ccccc2n1C1CCN(C2(c3ccccc3)CCCCCC2)CC1 (as salt: salt)
208 to 212 | OC1CCN(c2nc3ccccc3n2C2CCN(C3(c4ccccc4)CCCCCC3)CC2)CC1 (as salt: HCl)
168 to 171 | CSc1nc2ccccc2n1C1CCN(C2(c3ccccc3)CCCCCC2)CC1 (as salt: HCl)
217 to 221 | NCC(=O)Nc1nc2ccccc2n1C1CCN(C2(c3ccccc3)CCCCCCC2)CC1 (as salt: HCl)
228 to 232 | NCCNc1nc2ccccc2n1C1CCN(C2(c3ccccc3)CCCCCC2)CC1 (as salt: HCl)
225 to 228 | NC1CCN(c2nc3ccccc3n2C2CCN(C3(c4ccccc4)CCCCCC3)CC2)CC1 (as salt: HCl)
156 to 159 | CCCCCNc1nc2ccccc2n1C1CCN(C2(c3ccccc3)CCCCCC2)CC1 (as salt: HCl)
178 to 181 | c1ccc(C2(N3CCC(n4c(N5CCCC5)nc5ccccc54)CC3)CCCCCC2)cc1 (as salt: HCl)
155 to 158 | CS(=O)(=O)c1nc2ccccc2n1C1CCN(C2(c3ccccc3)CCCCCC2)CC1 (as salt: HCl)
231 to 235 | c1ccc(C2(N3CCC(n4c(NC5CCNCC5)nc5ccccc54)CC3)CCCCCC2)cc1 (as salt: HCl)
180 to 184 | NCCOc1nc2ccccc2n1C1CCN(C2(c3ccccc3)CCCCCC2)CC1 (as salt: HCl)
159 to 163 | c1ccc(C2(N3CCC(n4c(N5CCNCC5)nc5ccccc54)CC3)CCCCCC2)cc1 (as salt: HCl)
